Like-named read-outs stand apart in the source and are kept apart here.

Series [1] has as its system angiogenesis in the cornea. As to conditions: rabbit, in vivo.
Series [2] relates to tumor-induced angiogenesis (VX2 carcinoma) in the rabbit cornea. The series can be described thus: Rabbit cornea angiogenesis assay with VX2 carcinoma and controlled release polymers. To be noted: for factor of decrease of tumor-induced angiogenesis: versus empty polymer.
The test system of series [3] is angiogenesis in the cornea. The experiment in a line: Drug-containing polymers implanted alone in the cornea. As to conditions: polymer without tumor in the cornea.

`CC(=O)OCC(=O)[C@@]1(O)CC[C@H]2[C@@H]3CCC4=CC(=O)CC[C@]4(C)[C@H]3C(=O)C[C@@]21C` [cortisone, cortisone acetate]: in series [1], the “angiogenesis induced by polymer implanted alone” value (“angiogenesis induced” below) was “did not induce angiogenesis”. In addition, the “inhibition of tumor angiogenesis (angiogenesis index)” value in series [2] (controlled release from EVAc polymer, 7, 14 and 21 days, P<0.05) is listed as “significantly inhibited”.
For the compound heparin, the “angiogenesis induced” value in series [3] is recorded as “promote a mild angiogenic response”.
`CN(C)c1ccc(O)c2c1C[C@H]1C[C@H]3[C@H](N(C)C)C(O)=C(C(N)=O)C(=O)[C@@]3(O)C(O)=C1C2=O` [minocycline]: the “angiogenesis induced” value in series [3] was “did not induce angiogenesis”. Also, the results for the “factor of decrease of tumor-induced angiogenesis” value in series [2] (7 days after implantation), in series [2] (14 days after implantation) and in series [2] (21 days after implantation) were 4.5, 4.4 and 2.9, respectively.

Source of the values: US6482810B1, “Antibiotic composition for inhibition of angiogenesis” (priority 1991, dated 2002).
